Assay results: US20180344808A1, “HAPTOGLOBIN DERIVATIVE FOR TREATMENT OF SEPSIS AND ACETAMINOPHEN-INDUCED LIVER DAMAGE” (THE FEINSTEIN INSTITUTE FOR MEDICAL RESEARCH, priority 2017, published 2018)
No end group written: not given here.

Legend:
[1] = test system: HMGB1-induced TNF release in primary mouse macrophages; assay: Inhibition of HMGB1-induced TNF release in primary mouse macrophages; format: cell-based; settings: N=5, result in words
Text: (§1) FIG. 6A-6C: 6A. Schematics of haptoglobin (Hp) β and Hp β peptide (SEQ ID NO:1). 6B. […] 6C. […] N=5.
(§2) Haptoglobin β peptide retains the activity to bind and inhibit HMGB1 toxicity. […] (See FIG. 6C).

[2] = molecular target: T1, HMGB1 (Homo sapiens, UniProt P09429); assay: Surface plasmon resonance (BIAcore) analysis of binding to HMGB1
T1 sequence (P09429 1-215): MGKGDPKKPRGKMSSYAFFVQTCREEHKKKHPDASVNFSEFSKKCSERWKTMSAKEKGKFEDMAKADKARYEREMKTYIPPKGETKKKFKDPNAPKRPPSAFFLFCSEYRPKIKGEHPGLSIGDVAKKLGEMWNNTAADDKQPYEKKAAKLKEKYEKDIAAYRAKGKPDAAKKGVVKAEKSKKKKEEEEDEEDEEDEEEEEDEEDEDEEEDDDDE
Text: FIG. 2A-2B: 2A. Human haptoglobin has three phenotypes and contains α and β subunits. 2B. […] Data shown is representative of 3 separate experiments.
as §1
Haptoglobin (Hp) β binds to HMGB1: Human haptoglobin has three phenotypes and contains α and β subunits.
as §2

[3] = test system: acetaminophen-induced liver injury; assay: Survival in experimental acetaminophen-induced liver injury; format: in vivo; settings: mice; vehicle control group 35%; n=20 per group; P<0.05
Text: (§3) Haptoglobin is a complex protein consisting of α and β subunits (Yueh S C et al. J Chromatography, 2007). […] Administration of haptoglobin β subunit protects against lethality in mice with CLP-induced sepsis (CLP survival=85% in haptoglobin β-treated versus 50% in vehicle-treated group; n=22 mice per group, P<0.05) and in experimental acetaminophen-induced liver injury (Survival in haptoglobin β treated group=80% versus 35% in vehicle control group, P<0.05, n=20 mice per group). Screening of a peptide library of the haptoglobin β identified a critical region ([…], residues #278-305 in the B subunit) that retains the ability to inhibit HMGB1-induced TNF release from cultured macrophages. Taken together, these findings reveal a novel mechanism for haptoglobin modulation of the inflammatory action of HMGB1, with significant implications for developing experimental strategies targeting HMGB 1-dependent inflammatory diseases.
Acetaminophen-induced liver injury: Administration of haptoglobin β subunit protects against lethality in mice with experimental acetaminophen-induced liver injury (survival in haptoglobin β treated group=80% versus 35% in vehicle control group, P<0.05, n=20 mice per group).

[4] = test system: CLP-induced sepsis; assay: Survival in cecal ligation and puncture (CLP)-induced sepsis; format: in vivo, mice
Text: as §3
N=16 mice/group. […] Recombinant haptoglobin β (10 or 100 μg/mouse) was given once a day for 3 days starting at 24 hours after CLP surgery (N=25 mice/group). (See FIG. 5A-5B).

[5] = test system: HMGB1-induced TNF release in murine macrophage-like RAW 264.7 cells; assay: Inhibition of HMGB1-induced TNF release in RAW 264.7 cells; format: cell-based
Description: FIG. 3A-3B: HMGB1 stimulated TNF release in murine macrophage-like RAW 264.7 cells. 3A. The addition of haptoglobin produced a dose-dependent attenuation of the HMGB1-induced TNF release (up to 90% inhibition at 100 μg/ml). 3B. […] N=3-5 experiments. *: P<0.05 vs. HMGB1 alone.

[6] = molecular target: T2, Haptoglobin beta subunit (human) (human, UniProt P00738 162-406); assay: surface plasmon resonance
T2 construct: also called haptoglobin β; Hp β
T2 sequence: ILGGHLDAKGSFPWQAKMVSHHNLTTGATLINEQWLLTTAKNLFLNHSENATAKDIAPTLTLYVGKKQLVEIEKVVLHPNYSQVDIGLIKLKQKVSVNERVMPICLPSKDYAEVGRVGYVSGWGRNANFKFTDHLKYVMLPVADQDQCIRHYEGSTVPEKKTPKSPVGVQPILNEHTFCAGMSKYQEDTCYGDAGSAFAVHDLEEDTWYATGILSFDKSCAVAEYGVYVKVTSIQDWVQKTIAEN

“GYVSGWGRNANFKFTDHLKYVMLPVAD [Hpβ peptide]” was tested, and the “inhibition of HMGB1-induced TNF release” value [1] was “dose-dependently inhibited” and the Kd ([2]; BIAcore analysis) was about 17000 nM.

For “haptoglobin β: Haptoglobin beta subunit (human), SEQ ID NO:3; recombinant”, the “Survival in acetaminophen-induced liver injury” value [3] was 80%, the Kd ([2]; surface plasmon resonance, representative of 3 separate experiments) was 29 nM and the “rescue from death after CLP” value ([4]; haptoglobin KO mice, doses as low as 100 μg per animal per day, once a day for 3 days starting 24 hours after CLP, N=25 mice/group) was “rescued from death”. For the same molecule, the CLP survival ([4]; mice with CLP-induced sepsis, vehicle-treated group 50%, n=22 per group, P<0.05) was 85%, the “likelihood of survival vs vehicle-treated control after CLP” value ([4]; wild type mice, 200 μg/mouse injected IP, N=16 mice/group, P<0.05) was “twice as likely to survive” and the “inhibition of HMGB1-induced TNF release” value ([5]; result in words) was “as effective as haptoglobin”.

B1: HMGB1 (ligand)
chain: MGKGDPKKPRGKMSSYAFFVQTCREEHKKKHPDASVNFSEFSKKCSERWKTMSAKEKGKFEDMAKADKARYEREMKTYIPPKGETKKKFKDPNAPKRPPSAFFLFCSEYRPKIKGEHPGLSIGDVAKKLGEMWNNTAADDKQPYEKKAAKLKEKYEKDIAAYRAKGKPDAAKKGVVKAEKSKKKKEEEEDEEDEEDEEEEEDEEDEDEEEDDDDE
notes: also called extracellular HMGB1
B1 gave a Kd [6] of 29 nM.

B2: haptoglobin: full-length haptoglobin, acute phase protein with α and β subunits; mature human sequence SEQ ID NO:2 (protein, listed as Homo sapiens)
chain: VDSGNDVTDIADDGCPKPPEIAHGYVEHSVRYQCKNYYKLRTEGDGVYTLNDKKQWINKAVGDKLPECEADDGCPKPPEIAHGYVEHSVRYQCKNYYKLRTEGDGVYTLNNEKQWINKAVGDKLPECEAVCGKPKNPANPVQRILGGHLDAKGSFPWQAKMVSHHNLTTGATLINEQWLLTTAKNLFLNHSENATAKDIAPTLTLYVGKKQLVEIEKVVLHPNYSQVDIGLIKLKQKVSVNERVMPICLPSKDYAEVGRVGYVSGWGRNANFKFTDHLKYVMLPVADQDQCIRHYEGSTVPEKKTPKSPVGVQPILNEHTFCAGMSKYQEDTCYGDAGSAFAVHDLEEDTWYATGILSFDKSCAVAEYGVYVKVTSIQDWVQKTIAEN
In the case of B2, the “protection in intra-abdominal sepsis (CLP)” value ([4]; wild type and haptoglobin-gene deficient animals, result in words) is reported as “confers significant protection” and the “inhibition of HMGB1-induced TNF release” value ([5]; at 100 μg/ml, dose-dependent) is reported as “up to 90%”.
